The results in this text go back to patent US5672712A, “Thiazoline derivatives” (Taisho Pharmaceutical Co., Ltd., priority 1994, dated 1997).

Values after ≈ are worked out from the molar mass of the structure shown. Counter-ions that a name gives are not always drawn.

In data set [1] the target is T1, fibrinogen receptor (GpIIb/IIIa) on blood platelet (Homo sapiens, UniProt P05106+P08514).
T1 construct: fibrinogen-free blood platelet suspension; endogenous in cells; host or cells: human blood platelets (from citrated venous blood of a healthy donor, gel-filtered)
T1 sequence (P08514 32-887 limits assumed): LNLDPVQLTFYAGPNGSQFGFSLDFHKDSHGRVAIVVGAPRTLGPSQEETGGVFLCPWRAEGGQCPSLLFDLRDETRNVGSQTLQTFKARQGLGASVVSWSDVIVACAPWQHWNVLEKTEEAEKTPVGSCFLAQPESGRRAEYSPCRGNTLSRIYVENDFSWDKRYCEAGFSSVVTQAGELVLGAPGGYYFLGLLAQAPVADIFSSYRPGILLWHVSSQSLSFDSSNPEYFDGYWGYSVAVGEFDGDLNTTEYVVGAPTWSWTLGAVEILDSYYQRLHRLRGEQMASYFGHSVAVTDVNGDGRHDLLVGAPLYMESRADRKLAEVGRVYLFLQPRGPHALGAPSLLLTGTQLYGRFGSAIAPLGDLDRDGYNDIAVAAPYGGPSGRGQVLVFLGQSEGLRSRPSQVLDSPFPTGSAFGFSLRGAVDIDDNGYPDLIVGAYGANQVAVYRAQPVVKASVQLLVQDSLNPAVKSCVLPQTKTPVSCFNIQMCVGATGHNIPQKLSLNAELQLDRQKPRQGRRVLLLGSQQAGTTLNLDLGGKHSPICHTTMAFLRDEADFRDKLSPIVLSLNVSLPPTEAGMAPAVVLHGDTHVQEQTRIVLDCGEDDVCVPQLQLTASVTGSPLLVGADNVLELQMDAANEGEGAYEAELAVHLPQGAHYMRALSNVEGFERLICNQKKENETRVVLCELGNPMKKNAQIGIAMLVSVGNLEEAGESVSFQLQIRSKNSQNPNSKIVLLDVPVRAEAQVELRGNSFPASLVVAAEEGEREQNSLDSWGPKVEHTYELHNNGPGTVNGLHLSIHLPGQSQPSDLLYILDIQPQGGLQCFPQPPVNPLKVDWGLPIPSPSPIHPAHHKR
T1 sequence (P08514 891-1039 partner limits assumed): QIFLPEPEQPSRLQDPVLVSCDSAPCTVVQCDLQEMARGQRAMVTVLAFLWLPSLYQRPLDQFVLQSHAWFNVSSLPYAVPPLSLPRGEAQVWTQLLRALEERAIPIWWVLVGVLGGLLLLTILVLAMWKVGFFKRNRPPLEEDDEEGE
T1 sequence (P05106 27-788): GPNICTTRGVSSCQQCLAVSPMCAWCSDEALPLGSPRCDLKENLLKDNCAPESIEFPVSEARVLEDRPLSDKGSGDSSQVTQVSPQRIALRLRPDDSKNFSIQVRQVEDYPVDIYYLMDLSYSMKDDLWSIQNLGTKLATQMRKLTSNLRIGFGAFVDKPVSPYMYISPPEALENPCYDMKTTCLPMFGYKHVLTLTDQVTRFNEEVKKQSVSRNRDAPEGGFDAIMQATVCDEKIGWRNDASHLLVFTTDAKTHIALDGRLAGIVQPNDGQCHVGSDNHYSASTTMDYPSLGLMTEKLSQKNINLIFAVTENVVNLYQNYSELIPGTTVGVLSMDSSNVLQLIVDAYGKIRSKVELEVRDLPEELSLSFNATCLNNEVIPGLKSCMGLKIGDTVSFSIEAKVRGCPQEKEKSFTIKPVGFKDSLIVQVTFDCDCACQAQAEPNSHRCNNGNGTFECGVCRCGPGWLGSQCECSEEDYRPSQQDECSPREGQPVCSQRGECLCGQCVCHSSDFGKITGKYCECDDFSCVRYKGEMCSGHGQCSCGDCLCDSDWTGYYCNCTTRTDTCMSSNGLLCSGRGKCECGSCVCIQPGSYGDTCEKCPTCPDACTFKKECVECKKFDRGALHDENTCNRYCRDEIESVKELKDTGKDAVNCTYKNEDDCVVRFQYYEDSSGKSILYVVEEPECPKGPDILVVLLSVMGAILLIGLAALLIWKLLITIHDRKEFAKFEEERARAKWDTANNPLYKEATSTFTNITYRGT
Briefly: Human Blood Platelet Fibrinogen Binding Test (125I labeled human fibrinogen, ADP 10 μM). The note with it: human platelet 125I-fibrinogen binding. The method, then: Experiment 1 [Human Blood Platelet Fibrinogen Binding Test]
The test was carried out referring to the methods of G. A. Marguerie (J. Biol. Chem., vol. 254, pages. 5357-5363, 1979) and N. S. Nicholson (Thromb. Res., vol. 50, pages 567-578, 1991).
Citrated blood (the volume ratio of 3.13% sodium citrate solution and blood is 1:9) was collected from the cubital vein of a healthy human who had not received any drugs known to affect the function of blood platelet within 2 weeks prior to starting the test, and centrifuged at 120× g at room temperature for 15 minutes to give platelet rich plasma (PRP) as a supernatant.
To the above PRP was added one fifth volume of an ACD solution (citric acid/sodium citrate/dextrose), followed by centrifugation at 1200× g for 15 minutes. The precipitate was suspended in a Tyrode's solution ([…], 2 mM Mg^2+), followed by gel filtration using Sepharose 2B column to give a fibrinogen-free blood platelet suspension (1×10^9 /ml). The binding test was carried out by using the fibrinogen-free blood platelet suspension, the solutions of the compounds of Formula (I) in dimethyl sulfoxide which were each adjusted to the desired concentration by diluting with a physiological saline solution as test drugs, ADP (final concentration: 10 μM) and ^125 I labeled human fibrinogen, and then the binding inhibitory rate of the test drug was calculated.
N-(2-Carboxyethyl)-2-(4-amidinobenzoylimino)-3,4-dimethyl-3H-thiazoline-5-carboxamide hydrobromide (described in WO 94/02472; referred to as "Comparative drug" in the following experiments) was used as a comparative drug. The drug solution was prepared in the same manner as described above, and tested as described above.
The results are shown in Table 1 in which the compound numbers are the same as defined in the following examples and are also used in the following experiments.

Data set [2] in a line: Stability Test (pH 7 phosphate buffer, 80° C.). The format is physicochemical. The note with it: 20 mg in 1000 ml; for remaining at 4 h: After 4 hours; for remaining at 4 h / remaining at 8 h / remaining at 24 h: read-out: Remaining rate of Test drug; for remaining at 8 h: After 8 hours; for remaining at 24 h: After 24 hours; for Remaining rate of Test drug: Immediately after. The method, then: Experiment 4 [Stability Test]
Stability test was carried out referring to the method of A. K. Amirjahed et al [J. Pharm. Sci., vol. 66, page 785 (1977)].
20 mg of Compound 8 obtained in the following example and 20 mg of Comparative drug, each weighed accurately, were each dissolved in 0.1N phosphate buffer (a buffer of a suitable amount of 0.1M potassium dihydrogenphosphate mixed with a suitable amount of 0.1M disodium hydrogenphosphate to adjust to pH 7) to make exactly 1000 ml to give standard solutions, respectively. The solution was dispensed into ampules, and they were stored at 80° C. for 4 hours, 8 hours and 24 hours to prepare test solutions.
20 μl of the test solution and 20 μl of the standard solution were each quantified by high performance liquid chromatography method under the following procedure conditions, and the peak areas of Compound 8 and Comparative drug at the storage times were determined, and the remaining rate was calculated by using the following formula, and the results are shown in Table 4.
Detection instrument: Ultraviolet spectrophotometer (Detection wave length: 247 nm)
(§1) Column: ODS column 4.6.phi.×150 mm (TSK Gel ODS 80TM)
Column temperature: A definite temperature in the vicinity of 50° C.
[Compound 8] 1 ml of phosphoric acid and 5 g of sodium dodecylsulfate (SDS) are added to 1000 ml of a mixture of water and acetonitrile (65:35).
[Comparative drug] 1 ml of phosphoric acid and 3 g of sodium dodecylsulfate (SDS) are added to 1000 ml of a mixture of water and acetonitrile (60:40).
Formula: Remaining rate (%)= [formula]

The nature of data set [3]: Solubility Test (0.1M phosphate buffer, pH 7). The format is physicochemical. As to conditions: aqueous buffer, 0.1M phosphate buffer pH 7, 25° C. The method, then:
Experiment 3 [Solubility Test]
Solubility test was carried out referring to the method of S. Miyazaki et al. [Chem. Pharm. Bull., vol. 23, page 1197 (1975)].
9.511 g of disodium hydrogenphosphate weighed accurately was dissolved in 800 ml of water. The solution was adjusted to pH 7.0 by adding sodium dihydrogenphosphate, and the total volume of the solution was made exactly 1000 ml to give a 0.1M phosphate buffer (pH 7). To 1.0 ml of the buffer solution measured exactly was added an excess amount for the solubility limit of the test drug. The suspension was treated by supersonic waves for 5 minutes and stirred on a water bath at 25° C. for 24 hours. After removal of the insoluble substance by using a membrane filter (0.22 μm), the filtrate was appropriately diluted to give a test solution. Separately, 1 mg of the test drug weighed accurately was dissolved in the eluate to make exactly 100 ml to give a standard solution. The test solution and the standard solution were quantified by high performance liquid chromatography method under the following procedure conditions, and the solubility of the test drug was calculated.
Detection instrument: Ultraviolet spectrophotometer (Detection wave length: 246 nm)
as §1
Column temperature: A definite temperature in the vicinity of 50° C. […]

The subject of data set [4] is blood platelet aggregation. Kind of data set: Human in vitro Blood Platelet Aggregation Inhibition Test (ADP-induced, PRP). The format is cell-based. The note with it: ADP 7 μM, 37° C., 50% inhibition of maximum aggregation. The method, then:
Experiment 2 [Human in vitro Blood Platelet Aggregation Inhibition Test]
Citrated blood (the volume ratio of 3.13% sodium citrate solution and blood is 1:9) was collected from the cubital vein of a healthy human who had not received any drugs known to affect the function of blood platelet within 2 weeks prior to starting the test, and centrifuged at 120× g at room temperature for 15 minutes to give platelet rich plasma (PRP) as a supernatant. The remaining precipitate was further centrifuged at 1500× g for 10 minutes to give platelet poor plasma (PPP) as a supernatant. The blood platelet counts of PRP were adjusted to 50~60×10^4 /μl by diluting with PPP.
Blood platelet aggregation was monitored according to the method of Born G. V. R., [Nature, vol. 194, page 927 (1962)] using adenosine diphosphate (produced by Sigma Co.; hereinafter referred to as "ADP") as an aggregation-inducing substance. That is, a solution of the compound of Formula (I) as a test drug in dimethyl sulfoxide was adjusted to the desired concentration with a physiological saline solution. 25 μl of the solution was added to 250 μl of PRP and incubated at 37° C. for 3 minutes, and 25 μl of ADP (final concentration: 7 μM) was added thereto. […]

By IC50 is commonly meant the concentration that gives 50% inhibition. Low values mean greater potency in that assay, high ones weaker potency in that assay. In the case of `Cc1c(C(=O)NCCC(=O)O)sc(=NC(=O)c2ccc(C(=N)NCCCCCC(=O)Nc3ccccc3)cc2)n1C1CC1` [Compound 51, N-(2-carboxyethyl)-2-{4-[N-(5-phenylaminocarbonylpentyl)amidino]benzoylimino}-3-cyclopropyl-4-methyl-3H-thiazoline-5-carboxamide], the IC50 in data set [1] turned out to be 0.0086 µM.

As to `Cc1c(C(=O)NCCC(=O)O)sc(=NC(=O)c2ccc(C(=N)NCCCC(=O)OC3CCCCC3)cc2)n1C1CC1` [Compound 49, N-(2-carboxyethyl)-2-{4-[N-(3-cyclohexyloxycarbonylpropyl)amidino]benzoylimino}-3-cyclopropyl-4-methyl-3H-thiazoline-5-carboxamide], in data set [1], the IC50 was determined as 0.0072 µM.

In turn, `Cc1c(C(=O)NCCC(=O)O)sc(=NC(=O)c2ccc(C(=N)NCCCC(=O)OC3CCCCC3)cc2)n1C1CCC1` [Compound 56, N-(2-carboxyethyl)-2-{4-[N-(3-cyclohexyloxycarbonylpropyl)amidino]benzoylimino}-3-cyclobutyl-4-methyl-3H-thiazoline-5-carboxamide] had an IC50 in data set [1] of 0.0111 µM.

The molecule `Cc1c(C(=O)NCCC(=O)O)sc(=NC(=O)c2ccc(C(=N)NCCCC(=O)OC3CCCCC3)cc2)n1C(C)C` [Compound 17, N-(2-carboxyethyl)-2-{4-[N-(3-cyclohexyloxycarbonylpropyl)amidino]benzoylimino}-3-isopropyl-4-methyl-3H-thiazoline-5-carboxamide] came in with an IC50 in data set [1] of 0.0126 µM.

Regarding `Cc1c(C(=O)NCCC(=O)O)sc(=NC(=O)c2ccc(C(=N)NCCCC(=O)NC3CCCCC3)cc2)n1C` [Compound 12, N-(2-carboxyethyl)-2-{4-[N-(3-cyclohexylaminocarbonylpropyl)amidino]benzoylimino}-3,4-dimethyl-3H-thiazoline-5-carboxamide], the IC50 in data set [1] is 0.0047 µM.

By fraction remaining is commonly meant the share of the starting amount still present when the sample was taken. The term solubility denotes how much of the substance goes into solution per volume. Higher therefore signals a readily soluble substance. As for `Cc1c(C(=O)NCCC(=O)O)sc(=NC(=O)c2ccc(C(=N)NCCCC(=O)O)cc2)n1C` [Compound 8, N-(2-carboxyethyl)-2-{4-[N-(3-carboxypropyl)amidino]benzoylimino}-3,4-dimethyl-3H-thiazoline-5-carboxamide], in data set [2], the amount remaining at 4 h was found to be 97.8%, the fraction remaining at 8 h was 95.7%, the amount remaining at 24 h turned out to be 88.9% and the “Remaining rate of Test drug” value is reported as 100%. The molecule also registered a solubility at 24 h in data set [3] of 20 mg/mL (≈ 42.1 mM). The same molecule displayed an IC50 in data set [4] of 0.039 µM. The same molecule came in with an IC50 in data set [1] of 0.0256 µM.

Turning to `Cc1c(C(=O)NCCC(=O)O)sc(=NC(=O)c2ccc(C(=N)NCCCC(=O)OC3CCCCC3)cc2)n1C` [Compound 11, N-(2-carboxyethyl)-2-{4-[N-(3-cyclohexyloxycarbonylpropyl)amidino]benzoylimino}-3,4-dimethyl-3H-thiazoline-5-carboxamide], the IC50 in data set [1] was determined as 0.0082 µM.

`Cc1c(C(=O)NCCC(=O)O)sc(=NC(=O)c2ccc(C(=N)N)cc2)n1C` [Comparative drug, N-(2-Carboxyethyl)-2-(4-amidinobenzoylimino)-3,4-dimethyl-3H-thiazoline-5-carboxamide hydrobromide, reference compound]: in data set [2], the fraction remaining at 4 h is 82.2%, the fraction remaining at 8 h was determined as 68.4%, the fraction remaining at 24 h was determined as 32.3% and the “Remaining rate of Test drug” value is given as 100%. The molecule further came in with a solubility at 24 h in data set [3] of 0.03 mg/mL. Also, the IC50 in data set [4] stood at 0.017 µM. For the same molecule, in data set [1], the IC50 turned out to be 0.005 µM.

With `Cc1c(C(=O)NCCC(=O)O)sc(=NC(=O)c2ccc(C(=N)NCCC(=O)O)cc2)n1C` [Compound 9, N-(2-carboxyethyl)-2-{4-[N-(2-carboxyethyl)amidino]-benzoylimino}-3,4-dimethyl-3H-thiazoline-5-carboxamide], the IC50 in data set [1] came out at 0.0165 µM.
